Laboratory results taken from patent US20150017667A1, “MEANS AND METHODS FOR ASSESSING LIVER DISORDERS” (BASF SE, priority 2012, published 2015).
Marks after values point to notes of the source that are not given here.

System: female rats
Test: 28-day repeated dose oral toxicity study (OECD 407) with GC-MS/LC-MS plasma metabolite profiling, female rats

For `CN1CCCC1=O` [1-Methyl-2-pyrrolidon], the “3-O-Methylsphingosine (d18:1), ratio versus control” value (day 7) was 2.14*, the “5-O-Methylsphingosine (d18:1), ratio versus control” value (day 7) was 2.42* and the “14-Methylhexadecanoic acid, ratio versus control” value (day 7) was 1.15. The “Behenic acid (C22:0), ratio versus control” value (day 7) was 1.9*, the “Cholesterol, ratio versus control” value (day 7) was 1.73* and the “Coenzyme Q9, ratio versus control” value (day 7) was 2.46*. The “DAG (C18:1,C18:2), ratio versus control” value (day 7) was 2.43*, the “Eicosanoic acid (C20:0), ratio versus control” value (day 7) was 1.77* and the “Glucose, ratio versus control” value (day 7) was 1.05*. The “Glycerol phosphate, lipid fraction, ratio versus control” value (day 7) was 1.86*, the “Glycerol, lipid fraction, ratio versus control” value (day 7) was 2.24* and the “Glycerol-3-phosphate, polar fraction, ratio versus control” value (day 7) was 1.9*. For the same molecule, the “Heptadecanoic acid (C17:0), ratio versus control” value (day 7) was 1.46*, the “Linoleic acid (C18:cis[9,12]2), ratio versus control” value (“Linoleic acid … ratio versus control” for short) (day 7) was 2.52* and the “Nervonic acid (C24:cis[15]1), ratio versus control” value (day 7) was 1.75*. The “Palmitic acid (C16:0), ratio versus control” value (day 7) was 1.91*, the “Phosphatidylcholine (C16:0,C20:5), ratio versus control” value (day 7) was 1.32* and the “TAG (C16:0,C18:1,C18:3), ratio versus control” value (day 7) was 3.94*. For the same molecule, the “TAG (C16:0,C18:2), ratio versus control” value (day 7) was 2.46*, the “TAG (C18:1,C18:2), ratio versus control” value (day 7) was 3.73* and the “TAG (C18:2,C18:2), ratio versus control” value (day 7) was 3.44*. The “TAG (C18:2,C18:3), ratio versus control” value (day 7) was 4.16*, the “TAG No 01, ratio versus control” value (day 7) was 3.21* and the “TAG No 05, ratio versus control” value (day 7) was 3.11*. For the same molecule, the “TAG No 07, ratio versus control” value (day 7) was 3.69*, the “dihomo-gamma-Linolenic acid (C20:cis[8,11,14]3), ratio versus control” value (day 7) was 2.37* and the “erythro-Sphingosine, ratio versus control” value (day 7) was 2.19*. The “3-O-Methylsphingosine (d18:1), ratio versus control” value (day 14) was 2.3*, the “5-O-Methylsphingosine (d18:1), ratio versus control” value (day 14) was 2.31* and the “14-Methylhexadecanoic acid, ratio versus control” value (day 14) was 0.93. For the same molecule, the “Behenic acid (C22:0), ratio versus control” value (day 14) was 2.04*, the “Cholesterol, ratio versus control” value (day 14) was 2.16* and the “Coenzyme Q9, ratio versus control” value (day 14) was 2.57*. The “DAG (C18:1,C18:2), ratio versus control” value (day 14) was 2.31*, the “Eicosanoic acid (C20:0), ratio versus control” value (day 14) was 1.8* and the “Glucose, ratio versus control” value (day 14) was 0.99. For the same molecule, the “Glycerol phosphate, lipid fraction, ratio versus control” value (day 14) was 1.72*, the “Glycerol, lipid fraction, ratio versus control” value (day 14) was 2.33* and the “Glycerol-3-phosphate, polar fraction, ratio versus control” value (day 14) was 1.11*. For the same molecule, the “Heptadecanoic acid (C17:0), ratio versus control” value (day 14) was 1.39*, the “Linoleic acid … ratio versus control” value (day 14) was 2.4* and the “Nervonic acid (C24:cis[15]1), ratio versus control” value (day 14) was 1.64*. For the same molecule, the “Palmitic acid (C16:0), ratio versus control” value (day 14) was 1.95*, the “Phosphatidylcholine (C16:0,C20:5), ratio versus control” value (day 14) was 1.45* and the “TAG (C16:0,C18:1,C18:3), ratio versus control” value (day 14) was 4.14*. The “TAG (C16:0,C18:2), ratio versus control” value (day 14) was 3.6*, the “TAG (C18:1,C18:2), ratio versus control” value (day 14) was 3.82* and the “TAG (C18:2,C18:2), ratio versus control” value (day 14) was 3.56*. For the same molecule, the “TAG (C18:2,C18:3), ratio versus control” value (day 14) was 3.61*, the “TAG No 01, ratio versus control” value (day 14) was 4.15* and the “TAG No 05, ratio versus control” value (day 14) was 5.32*. The “TAG No 07, ratio versus control” value (day 14) was 3.84*, the “dihomo-gamma-Linolenic acid (C20:cis[8,11,14]3), ratio versus control” value (day 14) was 2.16* and the “erythro-Sphingosine, ratio versus control” value (day 14) was 2.27*. The “3-O-Methylsphingosine (d18:1), ratio versus control” value (day 28) was 1.83*, the “5-O-Methylsphingosine (d18:1), ratio versus control” value (day 28) was 1.89* and the “14-Methylhexadecanoic acid, ratio versus control” value (day 28) was 1.35*. The “Behenic acid (C22:0), ratio versus control” value (day 28) was 2.06*, the “Cholesterol, ratio versus control” value (day 28) was 2.38* and the “Coenzyme Q9, ratio versus control” value (day 28) was 3.27*. The “DAG (C18:1,C18:2), ratio versus control” value (day 28) was 6.81*, the “Eicosanoic acid (C20:0), ratio versus control” value (day 28) was 2.79* and the “Glucose, ratio versus control” value (day 28) was 0.76*. For the same molecule, the “Glycerol phosphate, lipid fraction, ratio versus control” value (day 28) was 2.59*, the “Glycerol, lipid fraction, ratio versus control” value (day 28) was 5.75* and the “Glycerol-3-phosphate, polar fraction, ratio versus control” value (day 28) was 1.29. The “Heptadecanoic acid (C17:0), ratio versus control” value (day 28) was 2.17*, the “Linoleic acid … ratio versus control” value (day 28) was 4.46* and the “Nervonic acid (C24:cis[15]1), ratio versus control” value (day 28) was 1.75*. For the same molecule, the “Palmitic acid (C16:0), ratio versus control” value (day 28) was 3.53*, the “Phosphatidylcholine (C16:0,C20:5), ratio versus control” value (day 28) was 1.35* and the “TAG (C16:0,C18:1,C18:3), ratio versus control” value (day 28) was 11.37*. For the same molecule, the “TAG (C16:0,C18:2), ratio versus control” value (day 28) was 3.51*, the “TAG (C18:1,C18:2), ratio versus control” value (day 28) was 7.38* and the “TAG (C18:2,C18:2), ratio versus control” value (day 28) was 7.33*. For the same molecule, the “TAG (C18:2,C18:3), ratio versus control” value (day 28) was 11.21*, the “TAG No 01, ratio versus control” value (day 28) was 11.51* and the “TAG No 05, ratio versus control” value (day 28) was 10.76*. For the same molecule, the “TAG No 07, ratio versus control” value (day 28) was 14.21*, the “dihomo-gamma-Linolenic acid (C20:cis[8,11,14]3), ratio versus control” value (day 28) was 3.96* and the “erythro-Sphingosine, ratio versus control” value (day 28) was 1.9*.

`CNC(=O)/C(=N/OC)c1ccccc1COc1cc(C)ccc1C` [Dimoxystrobin, (E)-2-(methoxyimino)-N-methyl-2-[alpha-(2,5-xylyloxy)-o-tolyl]acetamide] was tested, and the “3-O-Methylsphingosine (d18:1), ratio versus control” value (day 7) was 2.18*, the “5-O-Methylsphingosine (d18:1), ratio versus control” value (day 7) was 1.94* and the “14-Methylhexadecanoic acid, ratio versus control” value (day 7) was 1.27. For the same molecule, the “Behenic acid (C22:0), ratio versus control” value (day 7) was 2.03*, the “Cholesterol, ratio versus control” value (day 7) was 1.66* and the “Coenzyme Q9, ratio versus control” value (day 7) was 1.51*. The “DAG (C18:1,C18:2), ratio versus control” value (day 7) was 2.28*, the “Eicosanoic acid (C20:0), ratio versus control” value (day 7) was 2.23* and the “Glucose, ratio versus control” value (day 7) was 1.14. The “Glycerol phosphate, lipid fraction, ratio versus control” value (day 7) was 1.68*, the “Glycerol, lipid fraction, ratio versus control” value (day 7) was 2.08* and the “Glycerol-3-phosphate, polar fraction, ratio versus control” value (day 7) was 1.38. For the same molecule, the “Heptadecanoic acid (C17:0), ratio versus control” value (day 7) was 1.81*, the “Linoleic acid … ratio versus control” value (day 7) was 2.12* and the “Nervonic acid (C24:cis[15]1), ratio versus control” value (day 7) was 1.83*. The “Palmitic acid (C16:0), ratio versus control” value (day 7) was 1.99*, the “Phosphatidylcholine (C16:0,C20:5), ratio versus control” value (day 7) was 1.33* and the “TAG (C16:0,C18:1,C18:3), ratio versus control” value (day 7) was 4.17*. For the same molecule, the “TAG (C16:0,C18:2), ratio versus control” value (day 7) was 3.49*, the “TAG (C18:1,C18:2), ratio versus control” value (day 7) was 4.18* and the “TAG (C18:2,C18:2), ratio versus control” value (day 7) was 3.69*. For the same molecule, the “TAG (C18:2,C18:3), ratio versus control” value (day 7) was 3.61*, the “TAG No 01, ratio versus control” value (day 7) was 2.62* and the “TAG No 05, ratio versus control” value (day 7) was 2.89*. The “TAG No 07, ratio versus control” value (day 7) was 2.5*, the “dihomo-gamma-Linolenic acid (C20:cis[8,11,14]3), ratio versus control” value (day 7) was 2.95* and the “erythro-Sphingosine, ratio versus control” value (day 7) was 1.86*. For the same molecule, the “3-O-Methylsphingosine (d18:1), ratio versus control” value (day 14) was 1.78*, the “5-O-Methylsphingosine (d18:1), ratio versus control” value (day 14) was 1.94* and the “14-Methylhexadecanoic acid, ratio versus control” value (day 14) was 1.15. The “Behenic acid (C22:0), ratio versus control” value (day 14) was 2.23*, the “Cholesterol, ratio versus control” value (day 14) was 1.7* and the “Coenzyme Q9, ratio versus control” value (day 14) was 1.91. For the same molecule, the “DAG (C18:1,C18:2), ratio versus control” value (day 14) was 2.99*, the “Eicosanoic acid (C20:0), ratio versus control” value (day 14) was 2.54* and the “Glucose, ratio versus control” value (day 14) was 1.17. The “Glycerol phosphate, lipid fraction, ratio versus control” value (day 14) was 1.69*, the “Glycerol, lipid fraction, ratio versus control” value (day 14) was 2.44* and the “Glycerol-3-phosphate, polar fraction, ratio versus control” value (day 14) was 1.32*. The “Heptadecanoic acid (C17:0), ratio versus control” value (day 14) was 1.73*, the “Linoleic acid … ratio versus control” value (day 14) was 2.2* and the “Nervonic acid (C24:cis[15]1), ratio versus control” value (day 14) was 1.54*. The “Palmitic acid (C16:0), ratio versus control” value (day 14) was 1.89*, the “Phosphatidylcholine (C16:0,C20:5), ratio versus control” value (day 14) was 1.54* and the “TAG (C16:0,C18:1,C18:3), ratio versus control” value (day 14) was 5.45*. The “TAG (C16:0,C18:2), ratio versus control” value (day 14) was 4.36*, the “TAG (C18:1,C18:2), ratio versus control” value (day 14) was 3.37* and the “TAG (C18:2,C18:2), ratio versus control” value (day 14) was 3.82*. For the same molecule, the “TAG (C18:2,C18:3), ratio versus control” value (day 14) was 2.41*, the “TAG No 01, ratio versus control” value (day 14) was 1.93* and the “TAG No 05, ratio versus control” value (day 14) was 3.02*. For the same molecule, the “TAG No 07, ratio versus control” value (day 14) was 3.54*, the “dihomo-gamma-Linolenic acid (C20:cis[8,11,14]3), ratio versus control” value (day 14) was 2.58* and the “erythro-Sphingosine, ratio versus control” value (day 14) was 1.78*. For the same molecule, the “3-O-Methylsphingosine (d18:1), ratio versus control” value (day 28) was 1.52*, the “5-O-Methylsphingosine (d18:1), ratio versus control” value (day 28) was 1.59* and the “14-Methylhexadecanoic acid, ratio versus control” value (day 28) was 1.31*. The “Behenic acid (C22:0), ratio versus control” value (day 28) was 2.03*, the “Cholesterol, ratio versus control” value (day 28) was 1.75* and the “Coenzyme Q9, ratio versus control” value (day 28) was 1.78*. For the same molecule, the “DAG (C18:1,C18:2), ratio versus control” value (day 28) was 2.85*, the “Eicosanoic acid (C20:0), ratio versus control” value (day 28) was 2.08* and the “Glucose, ratio versus control” value (day 28) was 1.15. The “Glycerol phosphate, lipid fraction, ratio versus control” value (day 28) was 1.98*, the “Glycerol, lipid fraction, ratio versus control” value (day 28) was 2.58* and the “Glycerol-3-phosphate, polar fraction, ratio versus control” value (day 28) was 1.79. For the same molecule, the “Heptadecanoic acid (C17:0), ratio versus control” value (day 28) was 2.84*, the “Linoleic acid … ratio versus control” value (day 28) was 2.2* and the “Nervonic acid (C24:cis[15]1), ratio versus control” value (day 28) was 1.38*. For the same molecule, the “Palmitic acid (C16:0), ratio versus control” value (day 28) was 2.03*, the “Phosphatidylcholine (C16:0,C20:5), ratio versus control” value (day 28) was 1.15* and the “TAG (C16:0,C18:1,C18:3), ratio versus control” value (day 28) was 3.93*. The “TAG (C16:0,C18:2), ratio versus control” value (day 28) was 3.68*, the “TAG (C18:1,C18:2), ratio versus control” value (day 28) was 4.49* and the “TAG (C18:2,C18:2), ratio versus control” value (day 28) was 5.11*. For the same molecule, the “TAG (C18:2,C18:3), ratio versus control” value (day 28) was 3.9*, the “TAG No 01, ratio versus control” value (day 28) was 2.61* and the “TAG No 05, ratio versus control” value (day 28) was 4.39*. The “TAG No 07, ratio versus control” value (day 28) was 4.13*, the “dihomo-gamma-Linolenic acid (C20:cis[8,11,14]3), ratio versus control” value (day 28) was 3.54* and the “erythro-Sphingosine, ratio versus control” value (day 28) was 1.46*.
